Assay results taken from ChEMBL document CHEMBL4138278, “Neothioviridamide, a Polythioamide Compound Produced by Heterologous Expression of a Streptomyces sp. Cryptic RiPP Biosynthetic Gene Cluster” (J Nat Prod, 2018).

What was measured:
Type in all cases: functional, cell-based
SK-OV-3 = experiment: Cytotoxicity against human SKOV3 cells assessed as reduction in cell viability after 72 hrs by CellTiter-Glo luminescence assay; conditions: SK-OV-3, 72 h
[1] = Cytotoxicity against human ACC-MESO1 cells assessed as reduction in cell viability after 72 hrs by CellTiter-Glo luminescence assay; conditions: ACC-MESO-1, 72 h
Jurkat = experiment: Cytotoxicity against human Jurkat cells assessed as reduction in cell viability after 72 hrs by CellTiter-Glo luminescence assay

## CSCCC(NC(=S)C(NC(=O)C(C)=O)C(C)C)C(=S)NC(C)C(=O)NC(C)C(=S)NC(C)C(=S)NC(C)C(=O)NC1C(=O)NC(C(C)C)C(=O)NC(C)C(=O)NC(Cc2ccccc2)C(=O)NC(C(O)c2cn(C)c[n+]2C)C(=O)N/C=C\SC1C (stereo not drawn)
SK-OV-3
  IC50: 2100 nM
[1]
  IC50: 700 nM
Jurkat
  IC50: 400 nM
